Assay results reported in patent publication US20230338369A1, “COMBINATION OF A PROTEASOME INHIBITOR AND A HDAC INHIBITOR AND ITS USE FOR THE TREATMENT OF GENETIC DISEASES LINKED TO A PROTEIN CONFORMATIONAL DISORDER” (Centre d'Etude des Cellules Souches (CECS), priority 2019, published 2023).
Read-outs that look alike come from different tables or passages of the source. Peptide text beside a SMILES is read from it. * marks the point of attachment. Cbz = O=C(OCc1ccccc1)*

Legend:
R77C-α-SGmCh = test: SG localization cell-based assay: membrane rescue of R77C-α-SGmCh in immortalized LGMD-R3 patient fibroblasts; set-up: species or system human; settings: for effect on R77C-α-SGmCh mutant protein rescue in combination with givinostat: low doses: carfilzomib 10 nM, MG132 100 nM, increasing concentrations of givinostat; for EC50: read-out: EC50, presence of R77C-α-SGmCh at the membrane
Description: Cells were analyzed after 24 hours of treatment.
In order to easily evaluate the membrane localization of the R77C-α-SG mutant in the heterologous condition, a system was generated that allowed the simultaneous identification of the positive cells for the exogenous protein and the quantification of the amount of protein in the cell membrane. A fusion protein was created, consisting of the coding sequence for human R77C-α-SGfused with an mCherry (mCh) fluorescent reporter at the C-terminus. A flexible linker was inserted between the two coding sequences to avoid protein interference in protein maturation and folding. The construct, hereafter termed R77C-α-SGmCh, was placed under the transcriptional control of the cytomegalovirus (CMV) promoter and inserted into a lentivirus backbone. Immortalized fibroblasts from a LGMD-R3 patient were used as cellular model because of their absence of endogenous α-SG.

[1] = target: T1, chymotrypsin-like activity of the proteasome (Homo sapiens, UniProt P28074); test: Proteasomal activity assay (Proteasome-Glo chymotrypsin-like cell-based assay); settings: for chymotrypsin-like activity of the proteasome: increasing concentrations
T1 construct: endogenous in cells; host or cells: immortalized patient fibroblasts overexpressing R77C-α-SGmCh
Description: Fibroblasts were seeded in 384 well plates and treated with tested combinations as indicated for 12 hours. Proteasome-Glo™ or chymotrypsin-like cell-based assay reagents were added according to manufacturer instructions (Promega). Luminescence was read using a CLARIOstar® microplate reader (BMG Labtech).

[2] = test system: ubiquitinated proteins, P62, LC3BI/II, acetylated α-tubulin, α-SG; test: Immunoblotting of fibroblasts overexpressing R77C-α-SGmCh; format: cell-based, human; settings: 24 hours; for ubiquitinated proteins (Western blot): 10 μM in combination with 5 nM BTZ
Description: (B) Western Blot analysis of ubiquitinated proteins (top panel), P62 and LC3BI/II (middle panel) and acetylated α-tubulin (bottom panel) expression in fibroblasts overexpressing R77C-α-SGmCh and treated with DMSO 0.1%, BTZ (5 nM or 30 nM), or givinostat (10 μM) in presence or in absence of 5 nM BTZ for 24 hours.
(D) Western Blot analysis of ubiquitinated proteins (middle panel), α-SG (top panel) and acetylated α-tubulin (bottom panel) expression in fibroblasts overexpressing R77C-α-SGmCh and treated with DMSO 0.1%, BTZ (5 nM or 30 nM), or tubacin (10 μM) in presence or in absence of 5 nM BTZ for 24 hours.
Twenty-four hours after seeding, the immortalized fibroblasts expressing R77C-α-SGmCh were incubated with the tested compounds or the carrier. Cells were collected after 24 hours of treatment. Proteins were extracted by cell lysis buffer (NP40 Buffer, Thermo Scientific) and Proteases Inhibitors (Complete PIC, Roche). Proteins were separated using a 3-8% Criterion™ XT tris-acetate protein gel and then transferred to PVDF membrane with a Trans-Blot Turbo Transfert system (Biorad) using the 7 min/25V program. Detection of proteins was performed using standard Odyssey protocol by incubation with the following antibodies: • Ubiquitinated proteins: Merck, 04-263; • acetylated α-tubulin: Sigma, T6793; • P62: Abcam, ab56416; • LC3BI/II: Novus, NB600-1384.

[3] = test system: fibroblasts overexpressing R77C-α-SGmCh; test: Viability test: count of Hoechst stained cells per field; settings: increasing concentrations alone or in combination with 5 nM BTZ
Description: For overexpression of mutated α-SG and γ-SG, immortalized fibroblasts were transduced with a lentiviral vector expressing human R77C-α-SGmCh, C283Y-γ-SGmCh or E263K-γ-SGmCh with a multiplicity of infection (MOI) of 20 in the presence of 4 μg/ml of polybrene (Sigma-Aldrich). Cells were seeded on plates coated with 50 μg/ml of collagen I and maintained in a humidified atmosphere of 5% CO2 at 37-C. […] Cells were analyzed after 24 hours of treatment.
After 24 hours of drug treatment, cells were fixed in 4% paraformaldehyde (10 min, room temperature). Immunocytochemistry was performed in a phosphate-buffered saline (PBS) solution supplemented with 1% bovine serum albumin (BSA; Sigma) for blocking (1 hour, room temperature) and with a mouse anti-α-SG (NCL-L-a-SARC, Novocastra, Leica) or anti-γ-SG (NCL-L-g-SARC, Novocastra, Leica) for primary hybridization step (overnight, 4° C.). Cells were stained with a fluorophore-conjugated secondary anti-mouse antibody (Invitrogen; 1 hour, room temperature) and nuclei were visualized with Hoechst 33342 (Invitrogen). SG localization was analyzed with a CellInsight CX7 HCS Platform (Cellomics Inc). […] Pictures were acquired with a 10× objective in high-resolution camera mode and were analyzed using the colocalization bioapplication. The number of cells was monitored by counting Hoechst stained cells per field allowing quantification of the cell viability.

[4] = 10 μM with addition of 5 nM BTZ
[5] = combined treatment with 5 nM BTZ

SMILES	effect on R77C-α-SGmCh mutant protein rescue in combination with givinostat (R77C-α-SGmCh)	R77C-α-SGmCh membrane rescue (α-SG staining) (R77C-α-SGmCh; 10 μM alone)	R77C-α-SGmCh membrane rescue (α-SG staining) (R77C-α-SGmCh; [4])	EC50 (R77C-α-SGmCh; [5])	EC50 (R77C-α-SGmCh; treatment alone)	chymotrypsin-like activity of the proteasome [1]	ubiquitinated proteins (Western blot) [2]	also measured
CC(C)C[C@@H](C=O)NC(=O)[C@H](CC(C)C)NC(=O)[C@H](CC(C)C)NC(=O)OCc1ccccc1 [MG132] (Cbz-Leu-Leu-Leu-aldehyde)	synergistic effect	–	–	–	–	–	–	–
O=C(/C=C/c1cccc(S(=O)(=O)Nc2ccccc2)c1)NO [belinostat]	–	low effect	diffuse α-SG staining suggesting a synergy with BTZ	0.3 µM	5.3 µM	no proteasomal inhibition	–	–
CC(C)C[C@H](NC(=O)[C@H](Cc1ccccc1)NC(=O)c1cnccn1)B(O)O [bortezomib]	–	–	–	–	–	–	–	R77C-α-SG degradation rescue (R77C-α-SGmCh; 5 nM BTZ): rescuing partially; R77C-α-SG localization in the plasma membrane (R77C-α-SGmCh; 30 nM, 24 hours, non-permeabilized condition): rescue of R77C-α-SG localization in the plasma membrane; inhibition of the proteasome activity ([1]; 5 nM BTZ): limited inhibition
CC(C)C[C@H](NC(=O)[C@H](CCc1ccccc1)NC(=O)CN1CCOCC1)C(=O)N[C@@H](Cc1ccccc1)C(=O)N[C@@H](CC(C)C)C(=O)[C@@]1(C)CO1 [carfilzomib]	synergistic effect	–	–	–	–	–	–	–
CCN(CC)Cc1ccc2cc(COC(=O)Nc3ccc(C(=O)NO)cc3)ccc2c1 [givinostat, Givinostat]	–	low effect	diffuse α-SG staining suggesting a synergy with BTZ	0.8 µM	3 µM	no proteasomal inhibition	synergistic accumulation of ubiquitinated proteins	acetylation of α-tubulin (Western blot) ([2]; 10 μM alone or in combination with 5 nM BTZ): induces the acetylation of α-tubulin; LC3B-I to LC3B-II conversion and P62 (Western blot) ([2]; 10 μM combined with 5 nM BTZ): increasing conversion of LC3B-I to LC3B-II with P62 accumulation
O=C(CCCCCCC(=O)Nc1ccc([C@H]2O[C@@H](CSc3nc(-c4ccccc4)c(-c4ccccc4)o3)C[C@@H](c3ccc(CO)cc3)O2)cc1)NO [tubacin, Tubacin]	–	–	–	–	–	–	synergistic accumulation of ubiquitinated proteins	membrane R77C-α-SGmCh expression (R77C-α-SGmCh; in combination with 5 nM BTZ): synergistic effect; membrane R77C-α-SGmCh expression (R77C-α-SGmCh; increasing concentrations, alone): induced a dose-response curve; cell toxicity [3]: in the same range than givinostat; acetylation of α-tubulin (Western blot) ([2]; 10 μM combined with 5 nM BTZ): acetylation of a-tubulin; α-SG protein levels (Western blot) ([2]; 10 μM combined with 5 nM BTZ): increased α-SG protein levels
